4 compounds from patent US7816390B2, “N-substituted tricyclic 3-aminopyrazoles as anti-mitotic tubulin polymerization inhibitors” (Janssen Pharmaceutica NV, priority 2008, dated 2010) can be followed below.

The test system of experiment [1] is human tumor cell lines (AsPC-1, H460, PC3, T45D, A375, LoVo). The experiment can be described thus: Tumor cell proliferation assay (14C-thymidine incorporation). The class given is cell-based. Here is the method:
(§1) The compound N-(3-ethoxyphenyl)-1,4-dihydro-6-ethoxy-7-(3-hydroxypropoxy)-1-methylindeno[1,2-c]pyrazole-3-amine was evaluated for direct effects on the growth of several human tumor cell lines derived from human cancers of varying origin (HeLa, cervical, H460 lung, LoVo colon, LnCAP and PC3 prostate lines, T47D breast, A375 melanoma, AsPC1 pancreatic and U87MG glioblastoma) and on the proliferation of normal human umbilical vein endothelial cells (HUVEC). Colchicine, nocodazole, doxorubicin and paclitaxel were evaluated as comparators.
(§2) Methods: Tumor cell anti-proliferative activity was assessed using standard in vitro cell proliferation assays in which the IC50 for inhibition of cell proliferation by a compound was measured using ^14C-thymidine incorporation into cellular DNA. Briefly, cells were plated into 96-well microplates and allowed to adhere overnight. Compound was added the next day and cells were incubated for an additional 24 hours. [^14C]-thymidine was allowed to incorporate into cellular DNA for 24 hours after which the plate was washed and counted in a scintillation counter.
For orientation: Incorporation of labelled thymidine or its analogues reports DNA synthesis.

Experiment [2] concerns tubulin (colchicine binding site). The experiment can be described thus: Radiolabeled [3H]-colchicine competition SPA assay.
The test system is the same in experiment [3]. The experiment can be described thus: ThermoFluor binding assay. (DSF heats the sample and reads unfolding from a dye or from intrinsic fluorescence.)
The next experiment has as its system bovine tubulin. The experiment can be described thus: In vitro tubulin polymerization assay (CytoDYNAMIX Screen 03). The class given is biochemical. The conditions noted are these: for IC50: 3 mg/mL bovine tubulin, absorbance at 340 nm, relative to Vmax of DMSO controls, read-out: IC50 for inhibition of tubulin polymerization; for effect on tubulin polymerization curve (Vmax): 10 μM. Here is the method: Compounds were assayed in vitro for effects on tubulin polymerization using a commercially available assay kit from Cytoskeleton (CytoDYNAMIX Screen 03).
Methods: Briefly, this assay is based on the observation that light scattered by microtubules is proportional to the concentration of microtubule polymer. The standard polymerization reaction contains 100 μL volume of tubulin solution consisting of 3 mg/mL bovine tubulin in 80 mM PIPES pH 6.9, 0.5 mM EGTA, 2 mM MgCl2, 1 mM GTP and 10% glycerol. The tubulin solution (100 μL/well) is added rapidly to wells of a 96-well plate containing duplicate aliquots (10 μL) of experimental compounds in DMSO to achieve a final well concentration of 1.0 and 10 μM in a preliminary screening assay. Control wells contain the same final concentration of DMSO (<0.5%). Following initiation of the polymerization reaction by incubation at 37° C., absorbance at 340 nm is measured every minute for 60 minutes using a SpectraMax plate reader. […] Inhibition of tubulin polymerization by experimental compounds is calculated relative to the Vmax of the DMSO controls. A more detailed description of assay conditions and assay optimization can be found in the Assay Kit Instructions. The resulting polymerization curve (OD vs. Time in sec) is represented by three phases of microtubule polymerization, including nucleation (Phase I), microtubule growth (Phase II) and finally, steady-state equilibrium (Phase III). Compounds that interact (bind) with tubulin alter one or more of these characteristic phases of tubulin polymerization.

Experiment [4] relates to human umbilical vein endothelial cells (HUVEC). The experiment can be described thus: HUVEC proliferation assay (14C-thymidine incorporation). The class given is cell-based. On the procedure:
as §1, §2

Where “and” joins values, the source holds several entries; their conditions need not be identical. Identical values can stand only once. Like-named read-outs stand apart in the source and are kept apart here.

Consider `CCOc1cccc(Nc2nn(C)c3c2Cc2cc(OCC)c(OCCCO)cc2-3)c1` [N-(3-ethoxyphenyl)-1,4-dihydro-6-ethoxy-7-(3-hydroxypropoxy)-1-methylindeno[1,2-c]pyrazole-3-amine], for which the “fold less potent compared to paclitaxel” value in experiment [1] (depending on the cell line examined) is given as “approximately 10 fold”. Moreover, the IC50 in experiment [1] (range over 6 of 6 human tumor cell lines (AsPC-1, H460, PC3, T45D, A375, LoVo), read-out: IC50 for inhibition of tumor cell proliferation) was 0.002 to 0.01 µM; in the experiment with bovine tubulin, 2.4 µM and 2.4 to 3.7 µM; in experiment [4] (read-out: IC50 for inhibition of LSGS-stimulated HUVEC growth), under 0.01 µM; in experiment [4] (read-out: IC50 versus confluent, non-proliferating HUVEC cells), over 10 µM. Further, the “competition with [3H]-colchicine binding” value in experiment [2] was “competed with [^3H]-colchicine binding in a manner similar to unlabeled colchicine”. In addition, the “binding at the colchicine binding site” value in experiment [3] is on record as “binding of this compound at the colchicine binding site was also demonstrated”.
Consider `COC(=O)Nc1nc2ccc(C(=O)c3cccs3)cc2[nH]1` [nocodazole], for which, in the experiment on bovine tubulin, the “effect on tubulin polymerization curve (Vmax)” value is given as “significant decrease in the Vmax” and the IC50 was 1.5 µM.
On to `CC(=O)O[C@H]1C(=O)[C@@]2(C)[C@H]([C@H](OC(=O)c3ccccc3)[C@]3(O)C[C@H](OC(=O)[C@H](O)[C@@H](NC(=O)c4ccccc4)c4ccccc4)C(C)=C1C3(C)C)[C@]1(OC(C)=O)CO[C@@H]1C[C@@H]2O` [paclitaxel], for which the anti-proliferative potency entry in experiment [1] (H460 lung, T47D breast, PC3 prostate and LoVo colon lines) is “sub-nM potency”. In the experiment on bovine tubulin, the effect on tubulin entry is recorded as “stabilization of tubulin” and the “effect on tubulin polymerization curve (Vmax)” value was “dramatic enhancement of the Vmax of the growth phase”.
Turning to `CC[C@]1(O)C[C@@H]2CN(CCc3c([nH]c4ccccc34)[C@@](C(=O)OC)(c3cc4c(cc3OC)N(C)[C@H]3[C@@](O)(C(=O)OC)[C@H](OC(C)=O)[C@]5(CC)C=CCN6CC[C@]43[C@@H]65)C2)C1` [vinblastine, reference compound], in experiment [2], the “competition with [3H]-colchicine binding” value is “no significant competition”.
